# According to ChEMBL document CHEMBL5244281, “Tackling multidrug-resistant Staphylococcus aureus by natural products and their analogues acting as NorA efflux pump inhibitors” (Bioorg Med Chem, 2023):
# What was measured:
# Staphylococcus aureus [1] = assay: Antibacterial activity against norfloxacin resistant Staphylococcus aureus RN4220 overexpressing […] efflux pump gene assessed as bacterial growth inhibition incubated for 24 hrs by CLSI protocol based microdilution method; assay type: functional
# Staphylococcus aureus [2] = assay: Antibacterial activity against norfloxacin resistant Staphylococcus aureus 1199B overexpressing NorA efflux pump gene assessed as bacterial growth inhibition incubated for 24 hrs by CLSI protocol based microdilution method; assay type: functional
# Staphylococcus aureus [3] = assay: Antibacterial activity against norfloxacin resistant Staphylococcus aureus IS-58 overexpressing TetK efflux pump gene assessed as bacterial growth inhibition incubated for 24 hrs by CLSI protocol based microdilution method; assay type: functional
# [4] = molecular target: T1, Quinolone resistance protein NorA (Staphylococcus aureus) (UniProt P0A0J7); assay: Potentiation of ciprofloxacin-mediated inhibition of NorA efflux pump in Staphylococcus aureus 1199B overexpressing NorA efflux pump assessed as reduction in ciprofloxacin MIC (Rvb= […] ug/ml)
# T1 sequence (whole entry): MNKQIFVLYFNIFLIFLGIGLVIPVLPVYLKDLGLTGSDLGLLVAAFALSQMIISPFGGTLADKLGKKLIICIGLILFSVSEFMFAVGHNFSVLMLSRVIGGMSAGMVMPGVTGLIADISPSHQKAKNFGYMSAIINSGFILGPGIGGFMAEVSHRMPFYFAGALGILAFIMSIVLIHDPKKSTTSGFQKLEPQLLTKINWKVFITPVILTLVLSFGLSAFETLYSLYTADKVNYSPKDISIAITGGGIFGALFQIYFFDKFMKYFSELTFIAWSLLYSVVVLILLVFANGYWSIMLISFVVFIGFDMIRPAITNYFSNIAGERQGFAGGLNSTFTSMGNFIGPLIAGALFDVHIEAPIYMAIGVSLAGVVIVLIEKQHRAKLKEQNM
# Staphylococcus aureus [5] = assay: Antibacterial activity against wild type Staphylococcus aureus ATCC 25923 assessed as bacterial growth inhibition incubated for 24 hrs by resazurin based microdilution assay; assay type: functional
# Staphylococcus aureus [6] = assay: Antibacterial activity against Staphylococcus aureus IS-58 overexpressing TetK efflux protein assessed as bacterial growth inhibition incubated for 24 hrs by resazurin based microdilution assay; assay type: functional
# Staphylococcus aureus [7] = assay: Antibacterial activity against Staphylococcus aureus K2068 overexpressing mepA gene assessed as bacterial growth inhibition incubated for 24 hrs by resazurin based microdilution assay; assay type: functional
# Staphylococcus aureus [8] = assay: Antibacterial activity against Staphylococcus aureus K4100 overexpressing qacC gene assessed as bacterial growth inhibition incubated for 24 hrs by resazurin based microdilution assay; assay type: functional
# [9] = molecular target: T1, Quinolone resistance protein NorA (Staphylococcus aureus); conditions: 1199B
# Staphylococcus aureus [10] = assay: Antibacterial activity against Staphylococcus aureus RN4220 overexpressing […] efflux protein assessed as bacterial growth inhibition incubated for 24 hrs by resazurin based microdilution assay; assay type: functional
# Staphylococcus aureus [11] = assay: Antibacterial activity against Staphylococcus aureus 1199B overexpressing NorA efflux protein assessed as bacterial growth inhibition incubated for 24 hrs by resazurin based microdilution assay; assay type: functional
# Staphylococcus aureus [12] = assay: Antibacterial activity against Staphylococcus aureus K4414 overexpressing qacA/B gene assessed as bacterial growth inhibition incubated for 24 hrs by resazurin based microdilution assay; assay type: functional
# [13] = molecular target: T1, Quinolone resistance protein NorA (Staphylococcus aureus); conditions: 1199B, dose 128.0 µg/ml, time 24.0 hrs
# Staphylococcus aureus [14] = assay: Antibacterial activity against Staphylococcus aureus 1199 assessed as bacterial growth inhibition incubated for 24 hrs by resazurin based microdilution assay; assay type: functional
# Candida albicans = assay: Antifungal activity against Candida albicans NEWP031 assessed as bacterial growth inhibition incubated for 24 hrs by resazurin based microdilution assay; assay type: functional
# [15] = molecular target: T1, Quinolone resistance protein NorA (Staphylococcus aureus); assay: Potentiation of EtBr-induced inhibition of NorA efflux in Staphylococcus aureus 1199B overexpressing NorA assessed as reduction in EtBr MIC at 256 ug/ml incubated for 24 hrs by resazurin based assay (Rvb= 32 ug/ml); conditions: dose 256.0 µg/ml
# Staphylococcus aureus [16] = assay: Antibacterial activity against norfloxacin resistant Staphylococcus aureus 1199B overexpressing NorA assessed as bacterial growth inhibition incubated for 24 hrs by resazurin based microdilution assay; assay type: functional
# Staphylococcus aureus [17] = assay: Antibacterial activity against Staphylococcus aureus SA10 assessed as bacterial growth inhibition incubated for 24 hrs by resazurin based microdilution assay; assay type: functional
# Escherichia coli [18] = assay: Antibacterial activity against Escherichia coli ATCC […] assessed as bacterial growth inhibition incubated for 24 hrs by resazurin based microdilution assay; assay type: functional
# Staphylococcus aureus [19] = assay: Antibacterial activity against Staphylococcus aureus ATCC 25923 assessed as bacterial growth inhibition incubated for 24 hrs by resazurin based microdilution assay; assay type: functional
# Staphylococcus aureus [20] = assay: Antimicrobial activity against Staphylococcus aureus ATCC 43300 assessed as bacterial growth inhibition incubated for 18 hrs by broth microdilution assay; assay type: functional
# Escherichia coli [21] = assay: Antimicrobial activity against Escherichia coli ATCC 25922 assessed as bacterial growth inhibition incubated for 18 hrs by broth microdilution assay; assay type: functional
# Enterococcus faecium = assay: Antimicrobial activity against Enterococcus faecium ATCC 700221 assessed as bacterial growth inhibition incubated for 18 hrs by broth microdilution assay; assay type: functional
# Enterococcus faecalis = assay: Antimicrobial activity against Enterococcus faecalis ATCC 29212 assessed as bacterial growth inhibition incubated for 18 hrs by broth microdilution assay; assay type: functional
# Klebsiella pneumoniae = assay: Antimicrobial activity against Klebsiella pneumoniae 1213-2 assessed as bacterial growth inhibition incubated for 18 hrs by broth microdilution assay; assay type: functional
# Staphylococcus aureus [22] = assay: Antimicrobial activity against Staphylococcus aureus ATCC 29213 assessed as bacterial growth inhibition incubated for 18 hrs by broth microdilution assay; assay type: functional
# Staphylococcus aureus [23] = assay: Antimicrobial activity against Staphylococcus aureus BAA-44 assessed as bacterial growth inhibition incubated for 18 hrs by broth microdilution assay; assay type: functional
# Escherichia coli [24] = assay: Potentiation of gentamicin-induced antibacterial activity against Escherichia coli 06 assessed as gentamicin MIC at 1/8 times of MIC (Rvb= 322 ug/ml); assay type: functional
# [25] = molecular target: T1, Quinolone resistance protein NorA (Staphylococcus aureus); assay: Potentiation of EtBr-induced inhibition of NorA efflux pump in Staphylococcus aureus 1199B overexpressing NorA efflux pump assessed as reduction in EtBr MIC at 1/8 times of MIC by resazurin based assay (Rvb= 512 ug/ml)
# Staphylococcus aureus [26] = assay: Antibacterial activity against norfloxacin resistant Staphylococcus aureus 1199 assessed as bacterial growth inhibition; assay type: functional
# Staphylococcus aureus [27] = assay: Antibacterial activity against norfloxacin resistant Staphylococcus aureus 1199B overexpressing NorA assessed as bacterial growth inhibition; assay type: functional
structure (smiles),measurement,setting,value
O=C(O)c1cc(O)c(O)c(O)c1 [GALLIC ACID],MIC,Staphylococcus aureus [1],1020 µg/mL
same,MIC,Staphylococcus aureus [2],1020 µg/mL
same,MIC,Staphylococcus aureus [3],1020 µg/mL
CC(/C=C/C(=O)N1CCCC1)=C\c1ccc2c(c1)CCC(C)O2 (configuration not stated),MIC,[4],3.12 µg/mL
COc1ccc(/C=C/C(=O)c2cc(O)c(O)c(OC)c2)cc1OC,MIC,Staphylococcus aureus [5],100 µg/mL
same,MIC,Staphylococcus aureus [6],100 µg/mL
same,MIC,Staphylococcus aureus [7],100 µg/mL
same,MIC,Staphylococcus aureus [8],100 µg/mL
same,MIC,[9],16 µg/mL
same,MIC,Staphylococcus aureus [10],100 µg/mL
same,MIC,Staphylococcus aureus [11],100 µg/mL
same,MIC,Staphylococcus aureus [12],100 µg/mL
CC(C)CCCC(C)CCO (configuration not stated),MIC,[13],32 µg/mL
same,MIC,Staphylococcus aureus [14],≥ 1020 µg/mL
same,MIC,Candida albicans,2050 µg/mL
same,MIC,[15],16 µg/mL
same,MIC,Staphylococcus aureus [16],≥ 1020 µg/mL
same,MIC,Staphylococcus aureus [17],≥ 1020 µg/mL
same,MIC,Escherichia coli [18],2050 µg/mL
same,MIC,Staphylococcus aureus [19],≥ 1020 µg/mL
O=C(O)/C=C/c1ccc(O)c(O)c1 [CAFFEIC ACID],MIC,Staphylococcus aureus [1],1020 µg/mL
same,MIC,Staphylococcus aureus [2],1020 µg/mL
same,MIC,Staphylococcus aureus [3],1020 µg/mL
CN(CC[C@H](N)CC(=O)N[C@H]1C=C[C@H](n2ccc(N)nc2=O)O[C@@H]1C(=O)O)C(=N)N [BLASTICIDIN_S],MIC,Staphylococcus aureus [20],100 µg/mL
same,MIC,Escherichia coli [21],100 µg/mL
same,MIC,Enterococcus faecium,200 µg/mL
same,MIC,Enterococcus faecalis,25 µg/mL
same,MIC,Klebsiella pneumoniae,50 µg/mL
same,MIC,Staphylococcus aureus [22],50 µg/mL
same,MIC,Staphylococcus aureus [23],25 µg/mL
C[C@H]1[C@H](C)CC[C@]2(C)CC[C@]3(C)C(=CC[C@@H]4[C@@]5(C)CC[C@H](O)C(C)(C)[C@@H]5CC[C@]43C)[C@H]12,MIC,Escherichia coli [24],203 µg/mL
same,MIC,[25],406 µg/mL
CC(C)=CCC/C(C)=C\CO [NEROL],MIC,[13],32 µg/mL
same,MIC,Staphylococcus aureus [14],≥ 1020 µg/mL
same,MIC,Candida albicans,212 µg/mL
same,MIC,[15],16 µg/mL
same,MIC,Staphylococcus aureus [16],≥ 1020 µg/mL
same,MIC,Staphylococcus aureus [17],≥ 1020 µg/mL
same,MIC,Escherichia coli [18],512 µg/mL
same,MIC,Staphylococcus aureus [19],≥ 1020 µg/mL
CC1=CCC(C(C)C)CC1 (configuration not stated),MIC,Staphylococcus aureus [26],> 1020 µg/mL
same,MIC,Staphylococcus aureus [27],> 1020 µg/mL
